Measured values published in ChEMBL document CHEMBL1201862, “PubChem BioAssay data set” (2004).
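The compound was tested at five concentrations on cells cultured in 96-well plates, with a 48-hour exposure period. GI50 = concentration required for 50% inhibition of growth.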 Activity calls are given as the source filed them. Rule as the data show it: active = GI50 up to about 1.1 µM and inactive = higher.

Experiments:
Assay in all cases: NCI-60 cell line screen, 48 h
SN12C = test system: SN12C
UACC-62 = test system: UACC-62
OVCAR-8 = test system: OVCAR-8
A498 = test system: A498
M14 = test system: M14
SK-OV-3 = test system: SK-OV-3
MCF7 = test system: MCF7
CCRF-CEM = test system: CCRF-CEM
NCI-H23 = test system: NCI-H23
K562 = test system: K562
NCI-H460 = test system: NCI-H460
HT-29 = test system: HT-29
HCT-15 = test system: HCT-15
HCT-116 = test system: HCT-116
BT-549 = test system: BT-549
RXF 393 = test system: RXF 393
PC-3 = test system: PC-3
RPMI-8226 = test system: RPMI-8226
MDA-MB-435 = test system: MDA-MB-435
MDA-N = test system: MDA-N
OVCAR-5 = test system: OVCAR-5
IGROV-1 = test system: IGROV-1
U-251 = test system: U-251
CAKI-1 = test system: CAKI-1
SF-295 = test system: SF-295
MDA-MB-231 = test system: MDA-MB-231
HOP-92 = test system: HOP-92
UO-31 = test system: UO-31
NCI-H522 = test system: NCI-H522
EKVX = test system: EKVX
ACHN = test system: ACHN
HOP-62 = test system: HOP-62
SF-268 = test system: SF-268
SK-MEL-5 = test system: SK-MEL-5
SW-620 = test system: SW-620
SR = test system: SR
MOLT-4 = test system: MOLT-4
KM12 = test system: KM12
OVCAR-4 = test system: OVCAR-4
COLO 205 = test system: COLO 205
HL-60 = test system: HL-60
Malme-3M = test system: Malme-3M
NCI-H226 = test system: NCI-H226
SK-MEL-2 = test system: SK-MEL-2
DU-145 = test system: DU-145
T47D = test system: T47D
A549 = test system: A549
OVCAR-3 = test system: OVCAR-3
LOX IMVI = test system: LOX IMVI
SK-MEL-28 = test system: SK-MEL-28
Hs-578T = test system: Hs-578T
TK-10 = test system: TK-10
NCI/ADR-RES = test system: NCI/ADR-RES
UACC-257 = test system: UACC-257
SNB-19 = test system: SNB-19
786-0 = test system: 786-0
HCC 2998 = test system: HCC 2998

COc1cc(C2S/C(=C/c3ccccc3)C(=O)N2c2ccc(Cl)c(Cl)c2)cc(OC)c1OC (configuration not stated)
GI50 (SN12C): > 61.4 µM (inactive)
GI50 (UACC-62): 0.78 µM (active)
GI50 (OVCAR-8): > 72.3 µM (inactive)
GI50 (A498): > 42.4 µM (inactive)
GI50 (M14): 28.8 µM (inactive)
GI50 (SK-OV-3): > 91 µM (inactive)
GI50 (MCF7): 22.3 µM (inactive)
GI50 (CCRF-CEM): 1.36 µM (inactive)
GI50 (NCI-H23): 48.9 µM (inactive)
GI50 (K562): 15.2 µM (inactive)
GI50 (NCI-H460): 30.7 µM (inactive)
GI50 (HT-29): 55.5 µM (inactive)
GI50 (HCT-15): 18.7 µM
GI50 (HCT-116): 19.3 µM (inactive)
GI50 (BT-549): 42.3 µM (inactive)
GI50 (RXF 393): > 51.8 µM (inactive)
GI50 (PC-3): 20.5 µM (inactive)
GI50 (RPMI-8226): 46.3 µM (inactive)
GI50 (MDA-MB-435): 7.29 µM (inactive)
GI50 (MDA-N): 19.8 µM (inactive)
GI50 (OVCAR-5): 10.1 µM (inactive)
GI50 (IGROV-1): 22.5 µM (inactive)
GI50 (U-251): 38.7 µM (inactive)
GI50 (CAKI-1): > 70.8 µM (inactive)
GI50 (SF-295): 15.8 µM (inactive)
GI50 (MDA-MB-231): > 50.8 µM (inactive)
GI50 (HOP-92): 32.9 µM (inactive)
GI50 (UO-31): 33.3 µM (inactive)
GI50 (NCI-H522): 14.1 µM (inactive)
GI50 (EKVX): 23.1 µM (inactive)
GI50 (ACHN): 18.7 µM (inactive)
GI50 (HOP-62): 47.3 µM (inactive)
GI50 (SF-268): 11.7 µM (inactive)
GI50 (SK-MEL-5): 30.1 µM (inactive)
GI50 (SW-620): 31 µM (inactive)
GI50 (SR): 26 µM (inactive)
GI50 (MOLT-4): 28.8 µM (inactive)
GI50 (KM12): 18.1 µM (inactive)
GI50 (OVCAR-4): 60.8 µM (inactive)
GI50 (COLO 205): 46.6 µM (inactive)
GI50 (HL-60): 15.7 µM (inactive)
GI50 (Malme-3M): 42 µM (inactive)
GI50 (NCI-H226): 29.4 µM (inactive)
GI50 (SK-MEL-2): 12.6 µM (inactive)
GI50 (DU-145): 38.7 µM (inactive)
GI50 (T47D): > 100 µM (inactive)
GI50 (A549): 53.8 µM (inactive)
GI50 (OVCAR-3): > 57.1 µM (inactive)
GI50 (LOX IMVI): 19.2 µM (inactive)
GI50 (SK-MEL-28): 17.1 µM (inactive)
GI50 (Hs-578T): 15 µM (inactive)
GI50 (TK-10): > 100 µM (inactive)
GI50 (NCI/ADR-RES): 32.6 µM (inactive)
GI50 (UACC-257): > 70.6 µM (inactive)
GI50 (SNB-19): 59.2 µM (inactive)
GI50 (786-0): 70.6 µM (inactive)
GI50 (HCC 2998): 58.9 µM (inactive)
